Literature values in article PMC4948595 (Journal of Medicinal Chemistry, 2016).

Tested on: influenza endonuclease

## O=c1[nH]cc(-c2ccc(-c3nnn[nH]3)cc2)cc1O [Parhi-6]
  IC50: 368 ± 41 nM
